According to patent US20260174862A1, “PHARMACEUTICAL COMPOSITION COMPRISING PRMT5 INHIBITOR AND PD-1/PD-L1 INHIBITOR” (APEIRON THERAPEUTICS (HONG KONG) LTD., priority 2024, published 2026):

Test system: DuNN MTAP KO cells
Test: In vivo pharmacodynamic study in C3H mouse model of tibial orthotopic xenograft with DuNN MTAP KO cells
Conditions: for Tumor volume (mean): tibial orthotopic DuNN MTAP KO tumor, compound D 1 mg/kg PO QD, PD-1 antibody 5 mg/kg I.P. QW, n=6
Experimental: Example 1: In Vivo Pharmacodynamic Study of Compound D in C3H Mouse Model of Tibial Orthotopic Xenograft with DuNN MTAP KO Cells
Cell culture: […] DuNN MTAP KO cells (provided by the Experimental Animal Center of Shanghai First People's Hospital) were cultured in vitro monolayer under the conditions of adding 10% fetal bovine serum and 1% Antibiotic-Antimycotic to DMEM medium, and culturing in a 5% CO2 incubator at 37° C. Pancreatin-EDTA was used twice a week for routine digestion and passage. When the cell saturation is 80%-90% and the number of cells reached the requirement, the cells were collected, counted, and inoculated.
Animals: C3H normal mice, female, 4-6 weeks old, weighing 18-22 g. A total of 30 animals were required (24 enrolled, surplus).
Tumor inoculation: DUNN cells were digested with 0.25% pancreatin-EDTA solution to make them into a single cell suspension, washed with PBS buffer and the cell density was adjusted to 1×10^7/ml for further use. On the day of the experiment, mice were intraperitoneally injected with 0.5% sodium pentobarbital solution at a dose of 40 mg/kg to anesthetize them. A bone hole with a diameter of about 1 mm was drilled in the upper end of the right hindlimb tibia with a 1 ml syringe to reach the marrow cavity. Be careful not to penetrate the contralateral cortical bone and cause fractures or bleeding. A 1 ml syringe and a 25 G needle were used to draw the DUNN cell suspension and it was slowly injected into the tibial bone marrow cavity of the experimental group mice at a dose of 30 μl. Be careful not to cause cell reflux or leakage. After injection, the surgical field was disinfected with 75% alcohol, and the mice were returned to their cages, covered with sterile dressings, kept warm until they woke up, and then continued to be housed for observation. Randomized dosing began when the average tumor volume reached about 150 mm^3. At the end of the experiment, mice were intraperitoneally injected with 0.5% sodium pentobarbital solution at a dose of 120 mg/kg to euthanize them. Their tibia and tumor tissues were removed, fixed with 10% formaldehyde, paraffin sections were made, stained with HE, and the histological morphology and invasion of the tumors were observed under a microscope. The expression of proliferation indicators such as Ki-67 and PCNA in tumor cells was detected by immunohistochemistry.
Administering volume: 10 μL/g based on the weight of mice. If the weight loss exceeds 15%, stop administering immediately and resume it after the weight loss returns to less than 10%.
Animal grouping: Animals were weighed before administration and tumor volumes were measured. Randomized grouping was based on tumor volumes (randomized block design).
Experimental indicators: were used to examine whether tumor growth was inhibited, delayed or cured. The tumor diameter was measured twice a week with a vernier caliper. The calculation equation for tumor volumes is: V=0.5a×b^2, where a and b represent the major and minor diameters of the tumor, respectively.
The antitumor efficacy of the compound was evaluated by TGI (%) or tumor proliferation rate T/C (%). TGI (%) reflects the tumor growth inhibition. Calculation of TGI (%): TGI (%)=[1−(average tumor volume at the end of administering in a treatment group-average tumor volume at the start of administering in this treatment group)/(average tumor volume at the end of treatment in the solvent control group-average tumor volume at the start of treatment in the solvent control group)]×100%.
Tumor proliferation rate T/C (%): The calculation equation is as follows: T/C (%)=Ti/Vi×100%. Where Vi is the average tumor volume of the solvent control group at a certain measurement, and Ti is the average tumor volume of the treatment group at the same measurement. […]

SMILES: CN(C(=O)c1cc2c(cc1F)nc(N)c1cncn12)[C@@H]1COc2cc(C(F)(F)F)ccc21 [Compound D]
- tumor growth inhibition (TGI) (25-day study, compound D 1 mg/kg oral once daily, anti-PD-1 antibody 5 mg/kg intraperitoneal, C3H mice, DUNN tibial orthotopic model): 30.9%
- Tumor volume (mean) (Day 0, C3H mice): 21.6 mm^3
- Tumor volume (mean) (Day 4, C3H mice): 35.7 mm^3
- Tumor volume (mean) (Day 7, C3H mice): 41.3 mm^3
- Tumor volume (mean) (Day 10, C3H mice): 52.2 mm^3
- Tumor volume (mean) (Day 14, C3H mice): 68.7 mm^3
- Tumor volume (mean) (Day 18, C3H mice): 85.2 mm^3
- Tumor volume (mean) (Day 21, C3H mice): 136.9 mm^3
- Tumor volume (mean) (Day 25, C3H mice): 225.6 mm^3
- statistical significance (P) vs. control (one-way ANOVA, 25-day study, same doses): did not reach statistical significance
